Experimental data as given in patent US20020082249A1, “Prodrugs of aspartyle protease inhibitors” (priority 1997, published 2002).

How the values were obtained:
[1] = Pharmacokinetics in Sprague-Dawley rats following single oral dose; conditions: for Cmax / half-life: both, Sprague-Dawley, rat, in vivo, po; for AUC: rats
[2] = Similar oral pharmacokinetic study on dogs (solid capsule and solution formulations); conditions: dog, in vivo, 17 mg/kg

Question: For CC(C)CN(C[C@@H](O)[C@H](Cc1ccccc1)NC(=O)O[C@H]1CCOC1)S(=O)(=O)c1ccc(N)cc1 [VX-478], which Cmax ([1]; 41 mg/kg) is on record?
Answer: 14 µM

Question: And the half-life ([1]; 41 mg/kg)?
Answer: 2.5 h

Question: What about the Cmax ([1]; 50 mg/kg) of the same compound?
Answer: 6 µM

Question: And the half-life ([1]; 50 mg/kg)?
Answer: 2.2 h

Question: And the AUC ([1]; VX-478 41 mg/Kg PO, vehicle 33% TPGS/PEG 400/PG)?
Answer: 29.6 ug*hr/m1

Question: What about the AUC ([1]; VX-478 50 mg/Kg PO, vehicle 12.5% TPGS/PEG 400/PG) of the same compound?
Answer: 16.2 ug*hr/m1

Question: What about the AUC [2] of the same compound?
Answer: 23.5 ± 7.4 µg·h/mL

Question: And the Cmax [2]?
Answer: 6.8 ± 1.1 µg/mL

Question: And the Tmax [2]?
Answer: 1 ± 0.8 h

Question: Which results are given for CC(C)CN(C[C@@H](OP(=O)(O)O)[C@H](Cc1ccccc1)NC(=O)O[C@H]1CCOC1)S(=O)(=O)c1ccc(N)cc1 [Compound 229]?
Answer: compound 229 detected in blood samples ([1]; after oral administration, first time point blood sample or later samples, suggests first pass metabolism to VX-478): none of that compound was detected; delivery of VX-478, aqueous dose of 229 versus VX-478 formulations ([1]; aqueous dose of compound 229 compared with the two non-aqueous formulations used for VX-478): equivalence in delivery; bioavailability, aqueous solution versus other vehicles ([1]; oral administration of compound 229 as an aqueous solution, in comparison to the other vehicles studied): improved bioavailability; AUC ([1]; compound 229 PO, 40 mg/Kg molar equiv. of VX-478, vehicle H2O:PG:EtOH 5:4:1): 10.6 ug*hr/m1; AUC ([1]; compound 229 PO, 40 mg/Kg molar equiv. of VX-478, vehicle H2O, VX-478 measured in plasma): 11.7 ug*hr/m1; AUC ([1]; compound 229 PO, 40 mg/Kg molar equiv. of VX-478, vehicle PEG 400): 7.4 ug*hr/m1; AUC ([1]; compound 229 PO, 40 mg/Kg molar equiv. of VX-478, vehicle TPGS/PEG 400/PG): 8.2 ug*hr/m1
